The values that follow are results of earlier work, collected in article PMC4448982, “LP-925219 maximizes urinary glucose excretion in mice by inhibiting both renal SGLT1 and SGLT2” (Pharmacology Research & Perspectives, 2015).

In one data set the test system is SGLT2. On the set-up: method as in Rieg et al. [2014]. As to conditions: ref Rieg et al. [2014], cited from earlier work.
On the set-up of data set [1]: method as in Powell et al. [2014]. The settings on record: mouse; ref Powell et al. [2014]; cited from earlier work.
Details of data set [2]: method as in Powell et al. [2014]. The settings on record: human; ref Powell et al. [2014]; cited from earlier work.

Like-named read-outs stand apart in the source and are kept apart here.

As for `OC[C@H]1O[C@@H](c2ccc(Cl)c(Cc3ccc(O[C@H]4CCOC4)cc3)c2)[C@H](O)[C@@H](O)[C@@H]1O` [empagliflozin], the “reduction of glucose reabsorption” value in the data set on SGLT2 (SGLT1 KO mice) is recorded as 100%; in the data set with SGLT2 (WT mice), 56%.

Take `CCOc1ccc(Cc2cc([C@@H]3O[C@H](SC)[C@@H](O)[C@H](O)[C@H]3O)ccc2Cl)cc1` [sotagliflozin]: the plasma protein binding in data set [1] and in data set [2] was more than 90% in each case.
